# Measured values from ChEMBL document CHEMBL1201862, “PubChem BioAssay data set” (2004).
#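 Following 48 hours of exposure in 96-well plates, responses at five concentrations were used to interpolate endpoints linearly. GI50 = concentration required for 50% inhibition of growth.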 Activity calls are given as the source filed them. Cut-off read from the data, not from the text of the source: active = GI50 up to about 1.1 µM and inactive = higher.
# How the values were obtained:
# Assay in all cases: NCI tumour cell line growth inhibition, 48 h
# SK-MEL-28 = system: SK-MEL-28
# SW-620 = system: SW-620
# SNB-78 = system: SNB-78
# SNB-19 = system: SNB-19
# A549 = system: A549
# UACC-257 = system: UACC-257
# TK-10 = system: TK-10
# NCI-H522 = system: NCI-H522
# NCI-H23 = system: NCI-H23
# SF-539 = system: SF-539
# M14 = system: M14
# RXF 631 = system: RXF 631
# A498 = system: A498
# HT-29 = system: HT-29
# SF-268 = system: SF-268
# SR = system: SR
# 786-0 = system: 786-0
# KM-20L2 = system: KM-20L2
# HCT-116 = system: HCT-116
# IGROV-1 = system: IGROV-1
# UO-31 = system: UO-31
# NCI-H226 = system: NCI-H226
# SK-OV-3 = system: SK-OV-3
# KM12 = system: KM12
# RPMI-8226 = system: RPMI-8226
# HOP-92 = system: HOP-92
# SK-MEL-5 = system: SK-MEL-5
# HL-60 = system: HL-60
# EKVX = system: EKVX
# Malme-3M = system: Malme-3M
# RXF 393 = system: RXF 393
# OVCAR-3 = system: OVCAR-3
# OVCAR-5 = system: OVCAR-5
# DMS-273 = system: DMS-273
# NCI-H460 = system: NCI-H460
# SNB-75 = system: SNB-75
# UACC-62 = system: UACC-62
# HCC 2998 = system: HCC 2998
# XF498 = system: XF498
# LXFL 529 = system: LXFL 529
# DLD-1 = system: DLD-1
# SN12C = system: SN12C
# M19-MEL = system: M19-MEL
# OVCAR-8 = system: OVCAR-8
# DMS-114 = system: DMS-114
# SK-MEL-2 = system: SK-MEL-2
# HOP-18 = system: HOP-18
# K562 = system: K562
# ACHN = system: ACHN
# SF-295 = system: SF-295
# OVCAR-4 = system: OVCAR-4
# HOP-62 = system: HOP-62
# MOLT-4 = system: MOLT-4
# CAKI-1 = system: CAKI-1
# HCT-15 = system: HCT-15
# LOX IMVI = system: LOX IMVI
# CCRF-CEM = system: CCRF-CEM
# MDA-N = system: MDA-N
# MCF7 = system: MCF7
# DU-145 = system: DU-145
# MDA-MB-231 = system: MDA-MB-231
# T47D = system: T47D
# BT-549 = system: BT-549
# NCI/ADR-RES = system: NCI/ADR-RES
# U-251 = system: U-251
# COLO 205 = system: COLO 205
# Hs-578T = system: Hs-578T
# PC-3 = system: PC-3
# MDA-MB-435 = system: MDA-MB-435
compound,measurement,setting,value
Clc1ccc2c(c1)[nH]c1c2nc2ccccn21,GI50,SK-MEL-28,17.4 µM (inactive)
same,GI50,SW-620,24.8 µM (inactive)
same,GI50,SNB-78,23.6 µM (inactive)
same,GI50,SNB-19,19.4 µM (inactive)
same,GI50,A549,25.1 µM (inactive)
same,GI50,UACC-257,16.7 µM (inactive)
same,GI50,TK-10,16.8 µM (inactive)
same,GI50,NCI-H522,19.8 µM (inactive)
same,GI50,NCI-H23,21.6 µM (inactive)
same,GI50,SF-539,15.9 µM (inactive)
same,GI50,M14,20.2 µM (inactive)
same,GI50,RXF 631,22.5 µM (inactive)
same,GI50,A498,24.2 µM (inactive)
same,GI50,HT-29,15.2 µM (inactive)
same,GI50,SF-268,19 µM (inactive)
same,GI50,SR,17.1 µM (inactive)
same,GI50,786-0,18.9 µM (inactive)
same,GI50,KM-20L2,14.7 µM (inactive)
same,GI50,HCT-116,19.3 µM (inactive)
same,GI50,IGROV-1,40.8 µM (inactive)
same,GI50,UO-31,18.4 µM (inactive)
same,GI50,NCI-H226,25.4 µM (inactive)
same,GI50,SK-OV-3,27.3 µM (inactive)
same,GI50,KM12,16.9 µM (inactive)
same,GI50,RPMI-8226,14.7 µM (inactive)
C/C(CCn1[nH]c(=O)ccc1=O)=N\N=C(N)N,GI50,HOP-92,> 100 µM (inactive)
same,GI50,SK-MEL-5,> 100 µM (inactive)
same,GI50,HL-60,> 100 µM (inactive)
same,GI50,SK-MEL-28,> 100 µM (inactive)
same,GI50,EKVX,> 100 µM (inactive)
same,GI50,Malme-3M,> 100 µM (inactive)
same,GI50,RXF 393,> 100 µM (inactive)
same,GI50,SW-620,> 100 µM (inactive)
same,GI50,SNB-78,> 100 µM (inactive)
same,GI50,SNB-19,> 100 µM (inactive)
same,GI50,OVCAR-3,> 100 µM (inactive)
same,GI50,OVCAR-5,> 100 µM (inactive)
same,GI50,DMS-273,> 100 µM (inactive)
same,GI50,NCI-H460,> 100 µM (inactive)
same,GI50,SNB-75,> 100 µM (inactive)
same,GI50,A549,> 100 µM (inactive)
same,GI50,UACC-62,> 100 µM (inactive)
same,GI50,HCC 2998,> 100 µM (inactive)
same,GI50,UACC-257,> 100 µM (inactive)
same,GI50,XF498,> 100 µM (inactive)
same,GI50,LXFL 529,> 100 µM (inactive)
same,GI50,TK-10,> 100 µM (inactive)
same,GI50,NCI-H23,> 100 µM (inactive)
same,GI50,DLD-1,> 100 µM (inactive)
same,GI50,SN12C,> 100 µM (inactive)
same,GI50,SF-539,> 100 µM (inactive)
same,GI50,M19-MEL,> 100 µM (inactive)
same,GI50,M14,> 100 µM (inactive)
same,GI50,OVCAR-8,> 100 µM (inactive)
same,GI50,A498,> 100 µM (inactive)
same,GI50,DMS-114,> 100 µM (inactive)
same,GI50,SK-MEL-2,> 100 µM (inactive)
same,GI50,HT-29,> 100 µM (inactive)
same,GI50,HOP-18,> 100 µM (inactive)
same,GI50,SF-268,> 100 µM (inactive)
same,GI50,SR,> 100 µM (inactive)
same,GI50,K562,> 100 µM (inactive)
same,GI50,786-0,> 100 µM (inactive)
same,GI50,ACHN,> 100 µM (inactive)
same,GI50,SF-295,> 100 µM (inactive)
same,GI50,KM-20L2,> 100 µM (inactive)
same,GI50,HCT-116,> 100 µM (inactive)
same,GI50,IGROV-1,> 100 µM (inactive)
same,GI50,OVCAR-4,> 100 µM (inactive)
same,GI50,UO-31,> 100 µM (inactive)
same,GI50,HOP-62,> 100 µM (inactive)
same,GI50,MOLT-4,> 100 µM (inactive)
same,GI50,NCI-H226,> 100 µM (inactive)
same,GI50,CAKI-1,> 100 µM (inactive)
same,GI50,HCT-15,> 100 µM
same,GI50,KM12,> 100 µM (inactive)
same,GI50,LOX IMVI,> 100 µM (inactive)
same,GI50,RPMI-8226,> 100 µM (inactive)
same,GI50,CCRF-CEM,> 100 µM (inactive)
COc1ccc(/C=C\c2cc(OC)c(OC)c(OC)c2)cc1OC(=O)C(N)CCC(=O)O (stereo unspecified),GI50,MDA-N,5e-05 µM (active)
same,GI50,HL-60,7.5e-05 µM (active)
same,GI50,SK-MEL-28,0.000188 µM (active)
same,GI50,Malme-3M,0.000105 µM (active)
same,GI50,SW-620,0.00015 µM (active)
same,GI50,SNB-78,< 1e-05 µM (active)
same,GI50,OVCAR-3,0.00011 µM (active)
same,GI50,DMS-273,< 1e-05 µM (active)
same,GI50,NCI-H460,0.000133 µM (active)
same,GI50,A549,0.000802 µM (active)
same,GI50,UACC-62,8.02e-05 µM (active)
same,GI50,MCF7,0.00229 µM (active)
same,GI50,UACC-257,0.000465 µM (active)
same,GI50,XF498,< 1e-05 µM (active)
same,GI50,LXFL 529,< 1e-05 µM (active)
same,GI50,NCI-H522,8.51e-05 µM (active)
same,GI50,NCI-H23,0.000114 µM (active)
same,GI50,DLD-1,< 1e-05 µM (active)
same,GI50,SF-539,8.22e-05 µM (active)
same,GI50,M19-MEL,< 1e-05 µM (active)
same,GI50,M14,0.00016 µM (active)
same,GI50,OVCAR-8,0.000143 µM (active)
same,GI50,DMS-114,< 1e-05 µM (active)
same,GI50,HT-29,1.43 µM (inactive)
same,GI50,HOP-18,0.0764 µM (active)
same,GI50,SR,0.000208 µM (active)
same,GI50,786-0,0.000764 µM (active)
same,GI50,KM-20L2,0.00252 µM (active)
same,GI50,HCT-116,0.00015 µM (active)
same,GI50,MOLT-4,0.000135 µM (active)
same,GI50,NCI-H226,0.000632 µM (active)
same,GI50,KM12,0.000131 µM (active)
same,GI50,RPMI-8226,0.0001 µM (active)
same,GI50,CCRF-CEM,0.000117 µM (active)
CN(C)c1nc(N(C)C)nc(N(C)C)n1 [ALTRETAMINE],GI50,DU-145,> 150 µM (inactive)
same,GI50,HOP-92,147 µM (inactive)
same,GI50,SK-MEL-5,136 µM (inactive)
same,GI50,MDA-MB-231,> 150 µM (inactive)
same,GI50,MDA-N,> 150 µM (inactive)
same,GI50,HL-60,> 142 µM (inactive)
same,GI50,SK-MEL-28,> 150 µM (inactive)
same,GI50,EKVX,> 150 µM (inactive)
same,GI50,T47D,> 150 µM (inactive)
same,GI50,Malme-3M,> 147 µM (inactive)
same,GI50,RXF 393,> 150 µM (inactive)
same,GI50,SW-620,> 150 µM (inactive)
same,GI50,BT-549,> 150 µM (inactive)
same,GI50,SNB-78,> 150 µM (inactive)
same,GI50,SNB-19,> 144 µM (inactive)
same,GI50,OVCAR-3,142 µM (inactive)
same,GI50,OVCAR-5,> 147 µM (inactive)
same,GI50,DMS-273,> 140 µM (inactive)
same,GI50,NCI-H460,> 124 µM (inactive)
same,GI50,SNB-75,130 µM (inactive)
same,GI50,A549,> 147 µM (inactive)
same,GI50,UACC-62,> 150 µM (inactive)
same,GI50,HCC 2998,> 123 µM (inactive)
same,GI50,MCF7,> 150 µM (inactive)
same,GI50,UACC-257,> 150 µM (inactive)
same,GI50,XF498,109 µM (inactive)
same,GI50,LXFL 529,> 150 µM (inactive)
same,GI50,TK-10,> 150 µM (inactive)
same,GI50,NCI-H522,141 µM (inactive)
same,GI50,NCI-H23,> 143 µM (inactive)
same,GI50,DLD-1,> 132 µM (inactive)
same,GI50,SN12C,> 150 µM (inactive)
same,GI50,NCI/ADR-RES,> 114 µM (inactive)
same,GI50,SF-539,> 143 µM (inactive)
same,GI50,M19-MEL,> 144 µM (inactive)
same,GI50,M14,> 150 µM (inactive)
same,GI50,OVCAR-8,> 150 µM (inactive)
same,GI50,A498,> 148 µM (inactive)
same,GI50,U-251,> 150 µM (inactive)
same,GI50,DMS-114,> 148 µM (inactive)
same,GI50,SK-MEL-2,> 150 µM (inactive)
same,GI50,HT-29,> 150 µM (inactive)
same,GI50,HOP-18,53.3 µM (inactive)
same,GI50,SF-268,> 150 µM (inactive)
same,GI50,SR,> 150 µM (inactive)
same,GI50,K562,> 148 µM (inactive)
same,GI50,786-0,> 150 µM (inactive)
same,GI50,ACHN,> 150 µM (inactive)
same,GI50,SF-295,> 150 µM (inactive)
same,GI50,KM-20L2,> 150 µM (inactive)
same,GI50,HCT-116,> 150 µM (inactive)
same,GI50,COLO 205,> 148 µM (inactive)
same,GI50,IGROV-1,> 123 µM (inactive)
same,GI50,OVCAR-4,> 143 µM (inactive)
same,GI50,UO-31,> 147 µM (inactive)
same,GI50,Hs-578T,> 150 µM (inactive)
same,GI50,HOP-62,139 µM (inactive)
same,GI50,MOLT-4,133 µM (inactive)
same,GI50,NCI-H226,> 150 µM (inactive)
same,GI50,SK-OV-3,> 150 µM (inactive)
same,GI50,CAKI-1,130 µM (inactive)
same,GI50,PC-3,> 150 µM (inactive)
same,GI50,HCT-15,> 122 µM
same,GI50,KM12,> 150 µM (inactive)
same,GI50,LOX IMVI,> 145 µM (inactive)
same,GI50,MDA-MB-435,> 150 µM (inactive)
same,GI50,RPMI-8226,> 143 µM (inactive)
same,GI50,CCRF-CEM,> 147 µM (inactive)
